biological target: T1, p53 Y220C (Homo sapiens, UniProt P04637, Y220C); assay: In vitro DNA binding activity assay (HTRF / TR-FRET): stabilization of p53 Y220C and increase of its DNA binding activity; format: biochemical; details: recombinant His-tagged p53 Y220C DNA binding domain (aa 94-312), biotin-labeled consensus DNA, incubated at 27° C. or 29° C. for 60 min
T1 construct: The recombinant protein was a truncation mutant containing only amino acids 94-312 of p53; made in house; host or cells: E. coli
T1 sequence (P04637 94-312, change not shown): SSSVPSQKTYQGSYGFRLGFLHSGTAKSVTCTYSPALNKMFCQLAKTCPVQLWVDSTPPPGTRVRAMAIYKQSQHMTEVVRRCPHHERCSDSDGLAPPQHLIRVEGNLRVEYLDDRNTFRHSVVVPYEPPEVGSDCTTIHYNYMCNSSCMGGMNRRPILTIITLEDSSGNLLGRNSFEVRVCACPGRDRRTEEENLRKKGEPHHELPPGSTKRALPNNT
Method in brief: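 Test compounds, diluted 3-fold in DMSO from 4.5 mM stocks, were incubated with bacterially expressed His-tagged p53 Y220C at room temperature for 15 min, and after a further step for 20 min. DNA binding was detected by time-resolved FRET between APC and europium labels. SC150 marks the concentration increasing binding by 50%.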

| Compound | SC150 (concentration of the compound required to increase the DNA binding activity by 50%) |
| --- | --- |
| CNC(=O)c1ccc(NCC#Cc2cc3c(N[C@H]4CC[C@H](N5CC6COCC6C5)CC4)cccc3n2CC(F)(F)F)c(OC)c1 (stereo partly drawn) [Compound 434A, 3-methoxy-N-methyl-4-{[3-(4-{[(1R,4R)-4-{hexahydro-1H-furo[3,4-c]pyrrol-5-yl}cyclohexyl]amino}-1-(2,2,2-trifluoroethyl)-1H-indol-2-yl)prop-2-yn-1-yl]amino}benzamide] | + (+ = 0 μM ≤ SC150 < 0.05 μM) |
| COc1cc(S(=O)(=O)N2CCOCC2)ccc1NCC#Cc1cc2c(NC3CCNCC3)cccc2n1CC(F)(F)F [Compound 459A, 2-(3-{[2-methoxy-4-(morpholine-4-sulfonyl)phenyl]amino}prop-1-yn-1-yl)-N-(piperidin-4-yl)-1-(2,2,2-trifluoroethyl)-1H-indol-4-amine] | + (+ = 0 μM ≤ SC150 < 0.05 μM) |
| CCC(=O)OCC(O)CN1CCC(Nc2cccc3c2cc(C#CCNc2ccc(S(C)(=O)=O)cc2OC)n3CC(F)(F)F)CC1 (centres unmarked) [Compound 594A] | + (+ = 0 μM ≤ SC150 < 0.05 μM) |
| COCC(CN1CCC(Nc2cccc3c2cc(C#CCNc2ccc(S(C)(=O)=O)cc2OC)n3CC(F)(F)F)CC1)OC (centres unmarked) [Compound 580A, N-[1-(2,3-dimethoxypropyl)piperidin-4-yl]-2-{3-[(4-methanesulfonyl-2-methoxyphenyl)amino]prop-1-yn-1-yl}-1-(2,2,2-trifluoroethyl)-1H-indol-4-amine] | + (+ = 0 μM ≤ SC150 < 0.05 μM) |
| CCOc1cc(S(C)(=O)=O)ccc1NCC#Cc1cc2c(N[C@H]3CC[C@H](N4CC5(COC5)C4)CC3)cccc2n1CC(F)(F)F [Compound 234A, 2-{3-[(2-ethoxy-4-methanesulfonylphenyl)amino]prop-1-yn-1-yl}-N-[(1R,4R)-4-{2-oxa-6-azaspiro[3.3]heptan-6-yl}cyclohexyl]-1-(2,2,2-trifluoroethyl)-1H-indol-4-amine] | + (+ = 0 μM ≤ SC150 < 0.05 μM) |
| COc1cc(C(=O)O)ccc1NCC#Cc1cc2c(N[C@@H]3CCNC[C@@H]3F)cccc2n1CC(F)(F)F [Compound 858A] | + (+ = 0 μM ≤ SC150 < 0.05 μM) |
| COc1cc(S(=O)(=O)Nc2cc(C)on2)ccc1NCC#Cc1cc2c(NC3CCS(=O)(=O)CC3)cccc2n1CC(F)(F)F [Compound 1040A, 4-[(3-{4-[(1,1-dioxo-1λ^6-thian-4-yl)amino]-1-(2,2,2-trifluoroethyl)-1H-indol-2-yl}prop-2-yn-1-yl)amino]-3-methoxy-N-(5-methyl-1,2-oxazol-3-yl)benzene-1-sulfonamide] | + (+ = 0 μM ≤ SC150 < 0.05 μM) |
| COc1cc(S(N)(=O)=O)ccc1NCC#Cc1cc2c(N[C@H]3CC[C@H](N4CCC5(CCOC5)CC4)CC3)cccc2n1CC(F)(F)F [Compound 411A, 3-methoxy-4-{[3-(4-{[(1R,4R)-4-{2-oxa-8-azaspiro[4.5]decan-8-yl}cyclohexyl]amino}-1-(2,2,2-trifluoroethyl)-1H-indol-2-yl)prop-2-yn-1-yl]amino}benzene-1-sulfonamide] | + (+ = 0 μM ≤ SC150 < 0.05 μM) |
| CNC(=O)c1ccc(NCC#Cc2cc3c(N[C@H]4CC[C@H](C#N)CC4)cccc3n2CC(F)(F)F)c(OC)c1 [Compound 34A, 3-methoxy-N-methyl-4-{[3-(4-{[(1R,4R)-4-cyanocyclohexyl]amino}-1-(2,2,2-trifluoroethyl)-1H-indol-2-yl)prop-2-yn-1-yl]amino}benzamide] | + (+ = 0 μM ≤ SC150 < 0.05 μM) |
| CNC(=O)c1ccc(NCC#Cc2cc3c(NC4CCC(N5CC6(COC6)C5)CC4)cccc3n2CC(F)(F)F)c(OCF)c1 [Compound 253A, 3-(fluoromethoxy)-N-methyl-4-{[3-(4-{[(1R,4R)-4-{2-oxa-6-azaspiro[3.3]heptan-6-yl}cyclohexyl]amino}-1-(2,2,2-trifluoroethyl)-1H-indol-2-yl)prop-2-yn-1-yl]amino} benzamide] | + (+ = 0 μM ≤ SC150 < 0.05 μM) |
| COC(=O)c1ccc(NCC#Cc2cc3c(N[C@H]4CCN(C)C[C@@H]4F)cccc3n2CC(F)(F)F)c(OC)c1 (racemic) [Compound 777A, rac-Methyl 4-{[3-(4-{[(3R,4R)-3-fluoro-1-methylpiperidin-4-yl]amino}-1-(2,2,2-trifluoroethyl)-1H-indol-2-yl)prop-2-yn-1-yl]amino}-3-methoxybenzoate] | + (+ = 0 μM ≤ SC150 < 0.05 μM) |
| CCN1CCC(Nc2cccc3c2cc(C#CCNc2ccc(S(C)(=O)=O)cc2OCC#N)n3CC(F)(F)F)CC1 [Compound 536A] | + (+ = 0 μM ≤ SC150 < 0.05 μM) |
| COc1cc(S(=O)(=O)Nc2ccon2)ccc1NCC#Cc1cc2c(NC3CCN(CC(O)CO)CC3)cccc2n1CC(F)(F)F (centres unmarked) [Compound 547A, 4-{[3-(4-{[1-(2,3-dihydroxypropyl)piperidin-4-yl]amino}-1-(2,2,2-trifluoroethyl)-1H-indol-2-yl)prop-2-yn-1-yl]amino}-3-methoxy-N-(1,2-oxazol-3-yl)benzene-1-sulfonamide] | + (+ = 0 μM ≤ SC150 < 0.05 μM) |
| CNS(=O)(=O)c1ccc(NCC#Cc2cc3c(NC4CCN(CCOC)CC4)cccc3n2CC(F)(F)F)c(OC)c1 [Compound 617A, 3-methoxy-4-{[3-(4-{[1-(2-methoxyethyl)piperidin-4-yl]amino}-1-(2,2,2-trifluoroethyl)-1H-indol-2-yl)prop-2-yn-1-yl]amino}-N-methylbenzene-1-sulfonamide] | + (+ = 0 μM ≤ SC150 < 0.05 μM) |
| COC[C@H](O)CN1CC[C@@H](Nc2cccc3c2cc(C#CCNc2ccc(S(N)(=O)=O)cc2OC)n3CC(F)(F)F)[C@@H](F)C1 [Compound 869A, 4-{[3-(4-{[(3S,4R)-3-fluoro-1-[(2R)-2-hydroxy-3-methoxypropyl]piperidin-4-yl]amino}-1-(2,2,2-trifluoroethyl)-1H-indol-2-yl)prop-2-yn-1-yl]amino}-3-methoxybenzene-1-sulfonamide] | + (+ = 0 μM ≤ SC150 < 0.05 μM) |
| COc1cc(S(C)(=O)=O)ccc1NCC#Cc1cc2c(NC3CCN(CC4CCCO4)CC3)cccc2n1CC(F)(F)F (centres unmarked) [Compound 688A, 2-{3-[(4-methanesulfonyl-2-methoxyphenyl)amino]prop-1-yn-1-yl}-N-{1-[(oxolan-2-yl)methyl]piperidin-4-yl}-1-(2,2,2-trifluoroethyl)-1H-indol-4-amine] | + (+ = 0 μM ≤ SC150 < 0.05 μM) |
| CNC(=O)c1ccc(NCC#Cc2cc3c(N[C@H]4CC[C@H](N5CC6CC(C5)O6)CC4)cccc3n2CC(F)(F)F)c(OC)c1 [Compound 402A, 3-methoxy-N-methyl-4-{[3-(4-{[(1R,4R)-4-{6-oxa-3-azabicyclo[3.1.1]heptan-3-yl}cyclohexyl]amino}-1-(2,2,2-trifluoroethyl)-1H-indol-2-yl)prop-2-yn-1-yl]amino}benzamide] | + (+ = 0 μM ≤ SC150 < 0.05 μM) |
| CNC(=O)c1ccc(NCC#Cc2cc3c(NC4CCN(C(C)C)CC4)cccc3n2CC(F)(F)F)c(OC)c1 [Compound 539A, 3-methoxy-N-methyl-4-{[3-(4-{[1-(propan-2-yl)piperidin-4-yl]amino}-1-(2,2,2-trifluoroethyl)-1H-indol-2-yl)prop-2-yn-1-yl]amino}benzamide] | + (+ = 0 μM ≤ SC150 < 0.05 μM) |
| COc1cc(S(N)(=O)=O)ccc1NCC#Cc1cc2c(N[C@H]3CC[C@H](N(CCO)CCO)CC3)cccc2n1CC(F)(F)F [Compound 44A, 3-methoxy-4-{[3-(4-{[(1R,4R)-4-[bis(2-hydroxyethyl)amino]cyclohexyl]amino}-1-(2,2,2-trifluoroethyl)-1H-indol-2-yl)prop-2-yn-1-yl]amino}benzene-1-sulfonamide] | + (+ = 0 μM ≤ SC150 < 0.05 μM) |
| CNC(=O)c1ccc(NCC#Cc2cc3c(N[C@H]4CCN(C(C)(C)C)C[C@H]4F)cccc3n2CC(F)(F)F)c(OC)c1 [Compound 1073A, 4-{[3-(4-{[(3R,4S)-1-tert-butyl-3-fluoropiperidin-4-yl]amino}-1-(2,2,2-trifluoroethyl)-1H-indol-2-yl)prop-2-yn-1-yl]amino}-3-methoxy-N-methylbenzamide] | + (+ = 0 μM ≤ SC150 < 0.05 μM) |
| CN(C)[C@H]1CC[C@@H](Nc2cccc3c2cc(C#CCNc2ccc(S(C)(=O)=O)cc2OCC(F)(F)F)n3CC(F)(F)F)CC1 [Compound 93A, (1S,4S)-N^4-[2-(3-{[4-methanesulfonyl-2-(2,2,2-trifluoroethoxy)phenyl]amino}prop-1-yn-1-yl)-1-(2,2,2-trifluoro-ethyl)-1H-indol-4-yl]-N^1,N^1-dimethylcyclo-hexane-1,4-diamine] | + (+ = 0 μM ≤ SC150 < 0.05 μM) |
| COC(=O)c1ccc(NCC#Cc2cc3c(N[C@H]4CCN(CC(N)=O)C[C@H]4F)cccc3n2CC(F)(F)F)c(OC)c1 [Compound 915A, methyl 4-{[3-(4-{[(3R,4S)-1-(carbamoylmethyl)-3-fluoropiperidin-4-yl]amino}-1-(2,2,2-trifluoroethyl)-1H-indol-2-yl)prop-2-yn-1-yl]amino}-3-methoxybenzoate] | + (+ = 0 μM ≤ SC150 < 0.05 μM) |
| CN(C)[C@H]1CC[C@@H](Nc2cccc3c2cc(C#CCOc2ccc(S(C)(=O)=O)cc2N)n3CC(F)(F)F)CC1 [Compound 94A, (1S,4S)-N4-{2-[3-(2-amino-4-methane-sulfonylphenoxy)prop-1-yn-1-yl]-1-(2,2,2-trifluoroethyl)-1H-indol-4-yl}-N^1,N^1-dimethylcyclohexane-1,4-diamine] | +++ (+++ = 0.1 μM ≤ SC150 < 0.2 μM) |

— patent US12428406B2 (PMV Pharmaceuticals, Inc., priority 2019, dated 2025)
